Measured values: ChEMBL document CHEMBL1128052, “Further structure-activity-relationship studies on A/C/D-ring analogs of complement inhibitor K-76” (Bioorg Med Chem Lett, 1995)

Tests used:
[1] = Intrinsic Lytic Activity required to cause 50% hemolysis in the absence of complement; format: functional, Ovis aries
Homo sapiens = species: Homo sapiens; experiment: Inhibitory concentration required to inhibit human complement induced hemolysis by 50%; format: functional, organism-based
[2] = Intrinsic Lytic Activity required to cause 50% hemolysis in the absence of complement; Not bioassayed; format: functional, Ovis aries

Row | Structure (SMILES) | EC50 [1] [µM] | IC50 (Homo sapiens) [µM] | EC50 [2]
1 | CC1=CCC([C@]2(C)Cc3c(Oc4ccccc4)cc(C(=O)O)cc3O2)CC1 (stereo partly specified) | < 200 | > 824 | –
2 | CC1=CCC([C@]2(C)Cc3c(O)cc(C=O)cc3O2)CC1 (stereo partly specified) | < 280 | 515 | –
3 | COc1ccc(C(=O)O)c2c1C[C@@](C)(C1CC=C(C)CC1)O2 (stereo partly specified) | – | 380 | Not bioassayed
4 | CC1=CCC([C@]2(C)Cc3c(O)cc(C(=O)O)cc3O2)CC1 (stereo partly specified) | > 1040 | 730 | –
5 | COc1ccc(C(=O)O)c2c1C[C@](C)(C1CC[C@](C)(O)[C@H](O)C1)O2 (stereo partly specified) | – | 1600 | Not bioassayed
6 | C[C@@H]1CCC2C(C)(C)[C@H](O)[C@H](O)C[C@]2(C)[C@@]12Cc1c(O)cc(C(=O)O)c(C=O)c1O2 (stereo partly specified) | > 680 | 680 | –
7 | COc1cc(C=O)cc2c1C[C@@](C)(C1CC=C(C)CC1)O2 (stereo partly specified) | > 1050 | > 1050 | –
8 | CC1=CCC([C@@]2(C)Cc3c(O)ccc(C(=O)O)c3O2)CC1 (stereo partly specified) | – | 2100 | Not bioassayed
9 | COc1ccc(C(=O)O)c2c1C[C@](C)(C1CC=C(C)CC1)O2 (stereo partly specified) | – | 680 | Not bioassayed
10 | CC1=CCC([C@]2(C)Cc3c(Oc4ccccc4)cc(C=O)cc3O2)CC1 (stereo partly specified) | > 862 | > 862 | –
11 | COc1cc(C(=O)O)cc2c1C[C@@](C)(C1CC=C(C)CC1)O2 (stereo partly specified) | 660 | > 1000 | –
12 | COc1cc(C(=O)O)cc2c1CC(C)(C1CC[C@](C)(O)[C@H](O)C1)O2 (stereo partly specified) | > 892 | > 892 | –
13 | CC1=CCC([C@]2(C)Cc3c(O)ccc(C(=O)O)c3O2)CC1 (stereo partly specified) | – | 2400 | Not bioassayed
